Experimental findings from patent US5578445A, “In vitro method of evaluating the effects of a substance” (priority 1991, dated 1996) are described below.

One assay relates to ZR 75-1. Nature of the assay: Proliferation, amount of ATP after 6 days, ZR 75-1. The class given is cell-based, human. As to conditions: for activity at 0.0001 µM: +E2 (0.1 nM), 6 days. As to the method:
The growth is determined by measuring the amount of ATP in the cells after incubation with ligands for 6 days. […]
Samples of the cells ZR 75-1 (8000 cells/well) and MCF7 (4000 cells/well), respectively, were distributed into microtiter plates having 96 wells.
The following hormone additions were made:
The medium was replaced by fresh medium of the same composition as on day 6, and hormone additions as on day 6.
6 days after hormone addition the number of cells and their morphology were investigated. Medium from each well was poured off. To each well was added 100 μl 1% TCA (trichloro acetic acid).

In another assay the test system is MCF7. Nature of the assay: Proliferation, amount of ATP after 6 days, MCF7. As to conditions: for effect on growth: MCF7; for activity at 0.0001 µM: +E2 (0.1 nM).

Where two headings read alike, the source gives them in different places.

In the case of `CC/C(=C(\c1ccccc1)c1ccc(OCCN(C)C)cc1)c1ccccc1` [Tam, tamoxifen], the effect on growth result in the assay on ZR 75-1 (10^-7 M Tamoxifen alone, listed as Tamoxifen) is recorded as “functions as a weak agonist”; with ZR 75-1 (10^-7 M Tamoxifen alone, listed as tamoxifen), “weak agonistic effect”; in the assay with MCF7 (Tamoxifen alone) it was “has no effect”. Further, the activity at 1 µM amounted to 131% in the assay with ZR 75-1 (Homo sapiens, ZR-75-1, 144 h, + 10^-6 M Tam, -E2, 6 days, read-out: relative amount of ATP (no hormone added = 1)) and 94% in the assay with MCF7 (Homo sapiens, MCF7, 144 h, read-out: relative amount of ATP (no hormone added = 1), MCF7, + 10^-6 M Tam, -E2, 6 days). The activity at 0.1 µM in the assay with ZR 75-1 (Homo sapiens, ZR-75-1, 144 h, + 10^-7 M Tam, -E2, 6 days, read-out: relative amount of ATP (no hormone added = 1)) worked out at 155%; in the assay on MCF7 (Homo sapiens, MCF7, 144 h, read-out: relative amount of ATP (no hormone added = 1), MCF7, + 10^-7 M Tam, -E2, 6 days) it was 109%. Also, the activity at 0.01 µM in the assay with ZR 75-1 (Homo sapiens, ZR-75-1, 144 h, + 10^-8 M Tam, -E2, 6 days, read-out: relative amount of ATP (no hormone added = 1)) is 109%; with MCF7 (Homo sapiens, MCF7, 144 h, read-out: relative amount of ATP (no hormone added = 1), MCF7, + 10^-8 M Tam, -E2, 6 days), 122%. The activity at 0.001 µM turned out to be 91% with ZR 75-1 (Homo sapiens, ZR-75-1, 144 h, + 10^-9 M Tam, -E2, 6 days, read-out: relative amount of ATP (no hormone added = 1)) and 96% in the assay on MCF7 (Homo sapiens, MCF7, 144 h, read-out: relative amount of ATP (no hormone added = 1), MCF7, + 10^-9 M Tam, -E2, 6 days). The “Tamoxifen concentration at which an antagonistic effect can be seen” value with ZR 75-1 (presence of 0.1 nM E2) is 10^-6 M.

As to `C[C@]12CC[C@@H]3c4ccc(O)cc4CC[C@H]3[C@@H]1CC[C@@H]2O` [E2, estradiol], the effect on growth entry with ZR 75-1 (0.1 nM E2) and in the assay on MCF7 (0.1 nM E2) was “increase their growth dramatically” each time. Further, the activity at 0.0001 µM in the assay with ZR 75-1 (Homo sapiens, ZR-75-1, 144 h, No LY 117018 added, Experiment 2, read-out: relative amount of ATP (no hormone added = 1)) was 468%; in the assay on ZR 75-1 (Homo sapiens, ZR-75-1, 144 h, No Tam added, Experiment 1, read-out: relative amount of ATP (no hormone added = 1)) it was 351%; in the assay with MCF7 (Homo sapiens, MCF7, 144 h, read-out: relative amount of ATP (no hormone added = 1), MCF7, No LY 117018 added, 6 days, Experiment 2) it was 230%; in the assay on MCF7 (Homo sapiens, MCF7, 144 h, read-out: relative amount of ATP (no hormone added = 1), MCF7, No Tam added, 6 days, Experiment 1), 266%.
